Where two headings read alike, the source gives them in different places.

For assay [1], the target named is T1, PDK1 (Homo sapiens (Human), UniProt O15530). In words: PDK1 ATP Depletion Kinase Assay (Kinase-Glo luminescence). The class given is biochemical. Conditions: PDKtide substrate, read-out: PDK1 Kinase assays (IC50, μM) Activity Assay. As for the experimental part:
Test compounds were diluted to desired concentrations in kinase reaction buffer and briefly incubated with human recombinant PDK1 kinase which is histidine-tagged (Invitrogen Corporation, Carlsbad, Calif.). The reaction was subsequently initiated by the addition of ATP and PDKtide substrate (Millipore Corporation, Billerica, Massachussetts). […] After an incubation of 60 minutes at room temperature, 10 μl of the Kinase-Glo reagent (Promega Corporation, Madison, Wis.) was added to each well and incubated for an additional 10 minutes. Luminescence was measured on an EnVision microplate reader (PerkinElmer). The amount of luminescence from each reaction is inversely correlated with PDK1 kinase activity. Percent inhibition and IC50 values can be calculated by comparing enzyme activity in drug-treated wells to the appropriate controls, e.g. vehicle control.
(§1) IC50 values are determined using GraphPad Prism 5 software. The data were entered as an X-Y plot into the software as percent inhibition for each concentration of the drug. The concentration values of the drug were log transformed and the nonlinear regression was carried out using the “sigmoidal dose-response (variable slope)” option within the GraphPad software to model the data and calculate IC50 values.
For orientation: Kinase-Glo measures the ATP left after a reaction by luminescence.

Assay [2] concerns the target T1, PDK1. Kind of assay: PDK1 fluorometric activity assay performed by Life Technologies. Conditions: for IC50: fluorometric assay performed by Life Technologies (Table IV), read-out: PDK1 Kinase assays (IC50). The class given is biochemical. As for the experimental part:
PDK1 biochemical activity was measured by a fluorometric assay performed by Life Technologies (Grand Island, N.Y.). The assay conditions for PDK1 are as follows. The 2×PDK1/Ser/Thr-07 mixture is prepared in 50 mM Tris pH 8.5, 0.01% BRIJ-35, 10 mM MgCl2, 1 mM EGTA, 0.02% NaN3.
The kinase specificity was measured using fluorometric assays performed by Life Technologies (Grand Island, N.Y.). Assay conditions vary for each kinase and are available from Life Technologies, Grand Island, NY. For example, the assay conditions for PDK1 are as follows. The 2×PDK1/Ser/Thr-07 mixture is prepared in 50 mM Tris pH 8.5, 0.01% BRIJ-35, 10 mM MgCl2, 1 mM EGTA, 0.02% NaN3.

Assay [3] concerns AN3-CA cells. Kind of assay: Cell viability assay (ATP-lite). The class given is cell-based. As for the experimental part: (§2) AN3-CA (PTEN-deficient), RL95-2 (PTEN-deficient), and HEC-1A (PTEN-wild type) cells were plated in 45 μl of RPMI-1640 media supplemented with 10% FBS and 1% Pen/Strep at a density of 1000 cells per well in white 384-well plates. Cells were allowed to attach by incubation overnight at 37° C. and 5% CO2. Test compounds were diluted to 10× concentrations in RPMI-1640 media (containing 3% DMSO) and 5 μl 1 of these dilutions were added in triplicate to the appropriate wells containing the cells. The plates containing the drug-treated cells and appropriate controls were incubated for 96 hours. At the end of the incubation, 40 μl of ATP-lite (PerkinElmer, Inc., Waltham, Massachussetts) reagent were added to each well and luminescence signal was measured on an EnVision microplate reader.
Alternatively, AN3-CA, RL95-2, HEC-1A endometrial cancer cell lines were plated at a density of 2000 cells per well in a 96 well culture plate in 45 μl of cell culture media and incubated overnight. The following day, test compounds were added to the cells in 5 μl of serum-free media to generate final concentrations of 10, 3, 1, 0.3, 0.1, 0.03, 0.01, or 0.003 μM. Vehicle treated controls were also included and each condition was applied in quadruplicate. Following 96 hours of incubation, 35 μL of ATP-lite (PerkinElmer) reagent was added each well and allowed to react for 10 minutes. Plate was read on a Envision 2104 MultiLabel reader (PerkinElmer).
as §1

For assay [4], the system named is HS578T cell line. Kind of assay: Cell viability after PTEN shRNA knockdown. Type of assay: cell-based. Conditions: Homo sapiens, Hs-578T. Here is the method:
The lentiviral particles with PTEN shRNA or scrambled siRNA (ssi RNA) were purchased from Thermo Scientific. The cells were seeded in a 24-well plate and incubated overnight in RPMI full media. The media was removed and the cells were transfected with either siRNA or ssiRNA particles in serum/antibiotic free RPMI media. Six hours post-transduction, 1 ml of full media (serum plus penicillin/streptomycin) was added and the cells were incubated overnight. At 48 hours post-transduction fresh media with puromycin was added. The media was replaced with fresh puromycin containing media every 2 days. qPCR and western blot analysis was used to evaluate the level of PTEN knockdown.
as §2
In the figures, cell viability is shown as “Toxicity” and the cell viability assay was carried out as described above.

For assay [5], the system named is phosphorylation of the ribosomal protein s6 in AN3-CA cells. In words: In-cell western, phosphorylation of ribosomal protein s6. The class given is cell-based. Conditions: Homo sapiens, 2 hours. As for the experimental part: Cells were washed with PBS and whole cell lysates were prepared by incubating cells in […] (Invitrogen Corporation, Carlsbad, Calif.) supplemented with Protease Inhibitor Cocktail (Roche Applied Science, a division of Roche Diagnostics Corporation, Indianapolis, Ind.) and Phosphatase Inhibitor Cocktail (Roche) on ice for 30 minutes. After centrifuging the lysates at 12,000 rpm for 10 minutes at 4° C., the supernatant was collected. Protein concentration was determined using BCA Assay. The same amounts of protein were run on NuPAGE 4-12% Bis-Tris Gel, and then transferred onto a PVDF membrane. After blocking with Odyssey Blocking Buffer for 1 hour at room temperature, the membrane was incubated with primary antibodies (Cell Signaling Technology, Inc., Danvers, Massachussetts) overnight at 4° C. followed by 40 minute incubation with IRDye secondary antibody. The membrane was scanned using Odyssey Infrared Imaging System. […]
Briefly, ribosomal protein S6 was detected using differentially labeled antibodies specific for either total S6 protein or the phosphorylated form of the protein. In-cell detection with visual overlay of the signals for each antibody, e.g. total ribosomal protein s6 (red) and phospho-ribosomal protein s6 (green), allowed simultaneous detection and quantitation. Quantitation of signal intensity allowed determination of IC50 values for the test compounds.

[6] abbreviates: Homo sapiens, AN3-CA, AN3-CA (PTEN and PIK3R1 mutations), read-out: Cell Viability IC50 AN3-CA.
Where [7] appears, read: PTEN knockdown shRNA, read-out: IC50 for cell viability, PTEN knockdown shRNA cells.

T1 sequence (O15530 whole entry): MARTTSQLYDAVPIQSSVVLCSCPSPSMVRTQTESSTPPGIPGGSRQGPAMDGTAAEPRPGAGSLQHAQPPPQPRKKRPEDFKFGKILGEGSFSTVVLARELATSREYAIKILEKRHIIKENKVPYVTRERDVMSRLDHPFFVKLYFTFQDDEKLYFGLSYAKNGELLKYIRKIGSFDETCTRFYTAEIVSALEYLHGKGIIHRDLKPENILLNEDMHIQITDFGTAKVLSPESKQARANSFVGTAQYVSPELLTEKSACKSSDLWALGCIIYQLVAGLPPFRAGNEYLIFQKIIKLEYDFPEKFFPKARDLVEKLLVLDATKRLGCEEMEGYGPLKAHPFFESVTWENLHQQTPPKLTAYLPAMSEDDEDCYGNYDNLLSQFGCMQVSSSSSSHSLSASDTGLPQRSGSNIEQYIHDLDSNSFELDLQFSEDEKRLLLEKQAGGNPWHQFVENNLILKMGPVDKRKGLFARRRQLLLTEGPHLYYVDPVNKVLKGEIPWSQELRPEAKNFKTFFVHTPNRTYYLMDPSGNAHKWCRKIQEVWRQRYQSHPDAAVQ

In general, IC50 refers to the midpoint of a concentration-inhibition curve. For the compound `O=C(Nc1ccc2[nH]nc(-c3nc4ccc(N5CCOCC5)cc4[nH]3)c2c1)C1CC1(F)F` (stereo not shown) [Compound 1, 2,2-difluoro-N-(3-(5-morpholino-1H-benzo[d]imidazol-2-yl)-1H-indazol-5-yl)cyclopropanecarboxamide], the IC50 was 0.143 µM in assay [1]; 0.08 µM in assay [2]; 0.027 µM in assay [3] (setting [6]); 0.048 µM in assay [3] (Homo sapiens, AN3-CA, Table VI panel, mutation PTEN, PIK3R1, read-out: IC50 cell viability, AN3-CA); 0.027 µM in assay [3] (Homo sapiens, AN3-CA, read-out: IC50 cell viability, AN3-CA cells); 1.2 µM in assay [4] (setting [7]). The compound further returned an IC50 in assay [5] of 0.0756 µM. The “Kinase profiling activity against PDK1 (in words)” value in assay [2] (profiling at 500 nM, FIG. 8) was “good activity”. For the same compound, the “Potency in cell viability assay, AN3-CA (in words)” value in assay [3] (FIG. 6) was “most potent”.

In the case of `CC1CN(c2ccc3nc(-c4n[nH]c5ccc(NC(=O)C6CC6(F)F)cc45)[nH]c3c2)CCO1` (stereo not shown) [Compound 2, 2,2-difluoro-N-(3-(5-(2-methylmorpholino)-1H-benzo[d]imidazol-2-yl)-1H-indazol-5-yl)cyclopropanecarboxamide], the IC50 in assay [1] is 0.159 µM; in assay [2], 0.094 µM; in assay [3] (AN3-CA (PTEN and PIK3R1 mutations), listed as Test Compound 2, read-out: Cell Viability IC50 AN3-CA), 0.023 µM; in assay [3] (setting [6]) it was < 0.03 µM; in assay [4] (setting [7]), 0.8 µM; in assay [4] (control (scrambled) treated cells, read-out: IC50 for cell viability, control treated cells), 2.2 µM. The compound further had an IC50 in assay [5] of 0.0767 µM.

The values are drawn from US8569511B2, “Substituted 3-(1H-benzo[d]imidazol-2-yl)-1H-indazole analogs as inhibitors of the PDK1 kinase” (University of Utah Research Foundation, priority 2011, dated 2013).
